In experiment [1] the target is T1, Recombinant BTK^WT kinase (Homo sapiens, UniProt Q06187).
T1 construct: purchased Invitrogen
As to the kind of experiment: BTK WT binding affinity (LanthaScreen TR-FRET). Particulars: Kinase Tracer 236, 5 h incubation. The method, boiled down: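 Tracer-displacement TR-FRET: 2.5 nM recombinant BTK^WT, 2 nM Eu anti-His antibody and 15 nM Kinase Tracer 236 incubated with varying inhibitor concentrations for 5 h in Kinase Buffer A. Signal read at 340 nm excitation, 615/665 nm emission; IC50 from variable-slope log[inhibitor]–response fit.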
A general note: Time-resolved FRET reads energy transfer from a long-lived donor to a nearby acceptor.

Experiment [2] addresses T2, Recombinant BTK^C481S kinase (Homo sapiens, UniProt Q06187, C481S).
T2 construct: purchased SignalChem
Nature of the experiment: BTK C481S binding affinity (LanthaScreen TR-FRET). Particulars: Kinase Tracer 236, 5 h incubation. In outline: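 BTK C481S tracer-displacement TR-FRET: 5 nM His-tagged kinase, 2 nM Eu anti-His antibody and 30 nM Kinase Tracer 236 incubated with titrated inhibitor for 5 h in Kinase Buffer A. Read at 340 nm excitation, 615/665 nm emission; IC50 from variable-slope log[inhibitor]–response fit.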

Experiment [3] deals with T3, Recombinant EGFR (Homo sapiens, UniProt P00533).
T3 construct: purchased Invitrogen
As to the kind of experiment: EGFR binding affinity (LanthaScreen TR-FRET). Particulars: Kinase Tracer 199, 5 h incubation. In outline:
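TR-FRET binding (LanthaScreen) with recombinant EGFR; signal measured across a compound concentration range. IC50 obtained by fitting RFU against log[inhibitor] to a variable-slope model.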

The test system of experiment [4] is OCI-Ly10 human DLBCL cells. As to the kind of experiment: OCI-Ly10 anti-proliferative activity (Resazurin). The note with it: OCI-Ly10 cells, 72 h compound treatment, Resazurin, read-out: Proliferation Assay OCI-Ly10-20% FBS. Format: cell-based. The method, boiled down: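 OCI-Ly10 human DLBCL cells, whose growth depends on NFκB signalling, were seeded at 7.5×10^3 cells per well in 96-well plates with a range of compound concentrations and kept at 37° C for 72 h. Resazurin was then added, and after 5 h fluorescence was read at 590 nm.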

Like-named read-outs stand apart in the source and are kept apart here.

Among the data in patent US11826351B2, “Compounds useful as kinase inhibitors” (Loxo Oncology, Inc., priority 2015, dated 2023) are IC50 values, retold here.

T3 sequence (P00533 25-1210): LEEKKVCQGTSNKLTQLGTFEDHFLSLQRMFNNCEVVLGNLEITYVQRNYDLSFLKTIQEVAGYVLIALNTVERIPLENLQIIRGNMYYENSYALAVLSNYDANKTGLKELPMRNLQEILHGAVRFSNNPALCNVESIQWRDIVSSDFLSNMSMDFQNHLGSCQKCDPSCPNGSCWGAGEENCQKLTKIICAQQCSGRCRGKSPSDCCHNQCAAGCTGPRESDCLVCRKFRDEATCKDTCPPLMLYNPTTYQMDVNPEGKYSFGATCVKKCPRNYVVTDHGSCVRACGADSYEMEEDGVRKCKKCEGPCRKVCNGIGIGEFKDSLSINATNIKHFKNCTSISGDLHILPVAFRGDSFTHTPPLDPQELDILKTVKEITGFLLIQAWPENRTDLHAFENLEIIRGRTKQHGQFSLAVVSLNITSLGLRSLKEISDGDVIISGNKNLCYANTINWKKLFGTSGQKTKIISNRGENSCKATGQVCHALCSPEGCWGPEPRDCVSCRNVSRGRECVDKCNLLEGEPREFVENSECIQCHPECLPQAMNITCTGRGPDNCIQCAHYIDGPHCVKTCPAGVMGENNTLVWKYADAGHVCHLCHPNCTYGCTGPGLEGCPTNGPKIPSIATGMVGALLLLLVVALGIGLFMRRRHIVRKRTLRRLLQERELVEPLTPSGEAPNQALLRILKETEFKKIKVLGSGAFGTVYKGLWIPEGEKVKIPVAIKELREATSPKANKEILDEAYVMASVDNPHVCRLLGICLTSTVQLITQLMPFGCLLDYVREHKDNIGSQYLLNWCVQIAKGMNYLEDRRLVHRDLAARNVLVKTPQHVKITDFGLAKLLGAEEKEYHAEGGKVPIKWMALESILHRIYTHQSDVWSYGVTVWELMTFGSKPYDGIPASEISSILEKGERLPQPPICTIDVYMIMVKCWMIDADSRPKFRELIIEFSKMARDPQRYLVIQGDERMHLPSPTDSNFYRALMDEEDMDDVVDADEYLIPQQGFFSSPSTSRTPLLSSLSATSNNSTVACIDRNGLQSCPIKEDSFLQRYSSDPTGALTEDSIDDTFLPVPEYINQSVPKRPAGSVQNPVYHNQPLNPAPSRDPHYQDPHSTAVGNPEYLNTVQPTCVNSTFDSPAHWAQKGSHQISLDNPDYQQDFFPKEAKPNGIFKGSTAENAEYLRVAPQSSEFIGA
T2 sequence (Q06187 whole entry C481S): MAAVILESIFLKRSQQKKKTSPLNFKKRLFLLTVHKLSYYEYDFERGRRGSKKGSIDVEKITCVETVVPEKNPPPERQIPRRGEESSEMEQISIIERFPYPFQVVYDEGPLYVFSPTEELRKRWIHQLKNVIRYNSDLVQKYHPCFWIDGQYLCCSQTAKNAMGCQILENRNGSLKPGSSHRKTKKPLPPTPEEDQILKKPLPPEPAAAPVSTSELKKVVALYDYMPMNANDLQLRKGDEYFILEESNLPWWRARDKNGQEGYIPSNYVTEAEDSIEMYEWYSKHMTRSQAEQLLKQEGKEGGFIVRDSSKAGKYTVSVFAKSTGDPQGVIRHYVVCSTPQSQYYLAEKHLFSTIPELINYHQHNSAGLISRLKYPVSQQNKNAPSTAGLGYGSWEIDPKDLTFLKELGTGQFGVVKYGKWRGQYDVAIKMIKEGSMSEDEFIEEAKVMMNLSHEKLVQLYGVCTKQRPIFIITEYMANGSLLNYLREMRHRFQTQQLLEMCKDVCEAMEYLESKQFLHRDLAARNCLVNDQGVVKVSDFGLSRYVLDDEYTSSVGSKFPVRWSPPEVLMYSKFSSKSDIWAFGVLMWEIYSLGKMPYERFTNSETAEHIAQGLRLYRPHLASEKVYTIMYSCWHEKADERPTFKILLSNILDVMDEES
T1 sequence (Q06187 whole entry): as the sequence (Q06187 whole entry C481S) above, with S481C counted along it

On to `COc1ccc(F)cc1C(=O)NCc1ccc(-c2nn(C(C3CCOCC3)C(F)(F)F)c(N)c2C(N)=O)cc1` (stereo not shown) [Example 184, 5-amino-3-[4-[[(5-fluoro-2-methoxy-benzoyl)amino]methyl]phenyl]-1-(2,2,2-trifluoro-1-tetrahydropyran-4-yl-ethyl)pyrazole-4-carboxamide], for which the IC50 is 10 to 100 nM in experiment [1]; less than 10 nM in experiment [2]; more than 10000 nM in experiment [3]; less than 10 nM in experiment [4] (Homo sapiens, OCI-Ly10, 72 h).
Regarding `COc1ccccc1C(=O)NCc1ccc(-c2nn(C3CCOC3)c(N)c2C(N)=O)cc1` (stereo not shown) [Example 36, 5-Amino-3-[4-[[(2-methoxybenzoyl)amino]methyl]phenyl]-1-tetrahydrofuran-3-yl-pyrazole-4-carboxamide], the IC50 in experiment [1] is less than 10 nM; in experiment [2], less than 10 nM; in experiment [3] it was 1000 to 10000 nM; in experiment [4] (Homo sapiens, OCI-Ly10, 72 h), 10 to 100 nM.
For `COc1ccccc1C(=O)NCc1ccc(-c2nn(C3C[C@@H]4C[C@@H]4C3)c(N)c2C(N)=O)cc1` (stereo partly shown) [Example 4, 5-Amino-1-(3-bicyclo[3.1.0]hexanyl)-3-[4-[[(2-methoxybenzoyl)amino]methyl]phenyl]pyrazole-4-carboxamide], the IC50 is less than 10 nM in experiment [1]; less than 10 nM in experiment [2]; 100 to 1000 nM in experiment [3]; less than 10 nM in experiment [4] (Homo sapiens, OCI-Ly10, 72 h).
In the case of `COc1ccc(F)cc1C(=O)NCc1ccc(-c2nn(CC(F)(F)F)c(N)c2C(N)=O)c(F)c1` [Example 125, 5-amino-3-[2-fluoro-4-[[(5-fluoro-2-methoxy-benzoyl)amino]methyl]phenyl]-1-(2,2,2-trifluoroethyl)pyrazole-4-carboxamide], the IC50 was 10 to 100 nM in experiment [1]; less than 10 nM in experiment [2]; more than 10000 nM in experiment [3]; 100 to 1000 nM in experiment [4] (Homo sapiens, OCI-Ly10, 72 h).
On the same counts, the results for `COc1ccccc1C(=O)NCc1ccc(-c2nn(C3CCCOC3)c(N)c2C(N)=O)cc1` (stereo not shown) [Example 80, 5-amino-3-[4-[[(2-methoxybenzoyl)amino]methyl]phenyl]-1-tetrahydropyran-3-yl-pyrazole-4-carboxamide] are less than 10 nM, less than 10 nM, 100 to 1000 nM and 10 to 100 nM.
For `COc1ccccc1C(=O)NCc1ccc(-c2nn(C3CCCC3F)c(N)c2C(N)=O)cc1` (stereo not shown) [Example 103, 5-amino-1-(2-fluorocyclopentyl)-3-[4-[[(2-methoxybenzoyl)amino]methyl]phenyl]pyrazole-4-carboxamide], the IC50 in experiment [1] was less than 10 nM; in experiment [2] it was less than 10 nM; in experiment [3] it was 1000 to 10000 nM; in experiment [4] (Homo sapiens, OCI-Ly10, 72 h) it was 10 to 100 nM.
Regarding `CNc1c(C(N)=O)c(-c2ccc(CNC(=O)c3ccccc3OC)cc2)nn1C1CCCC1` [Example 60, 1-cyclopentyl-3-[4-[[(2-methoxybenzoyl)amino]methyl]phenyl]-5-(methylamino)pyrazole-4-carboxamide], the IC50 was less than 10 nM in experiment [1]; less than 10 nM in experiment [2]; 100 to 1000 nM in experiment [3]; 10 to 100 nM in experiment [4] (Homo sapiens, OCI-Ly10, 72 h).
With `COc1ccc(F)cc1C(=O)NCc1ccc(-c2nn(C3(C(F)(F)F)CCOCC3)c(N)c2C(N)=O)cc1` [Example 190, 5-Amino-3-[4-[[(5-fluoro-2-methoxy-benzoyl)amino]methyl]phenyl]-1-[4-(trifluoromethyl)tetrahydropyran-4-yl]pyrazole-4-carboxamide], the IC50 in experiment [1] lay in the range of 100 to 1000 nM; in experiment [2] it was 10 to 100 nM; in experiment [3], 1000 to 10000 nM; in experiment [4] (Homo sapiens, OCI-Ly10, 72 h), 1000 to 10000 nM.
As to `COCOCCn1nc(-c2ccc(CNC(=O)c3ccccc3OC)cc2)c(C(N)=O)c1N` [Example 7, 5-amino-3-[4-[[(2-methoxybenzoyl)amino]methyl]phenyl]-1-[2-(methoxymethoxy)ethyl]pyrazole-4-carboxamide], the IC50 in experiment [1] is 100 to 1000 nM; in experiment [2], 10 to 100 nM; in experiment [3], more than 10000 nM; in experiment [4] (Homo sapiens, OCI-Ly10, 72 h) it was 100 to 1000 nM.
For the compound `COc1ccc(F)cc1C(=O)NCc1ccc(-c2nn([C@@H]3CCOC3)c(N)c2C(N)=O)cc1` [Example 164, 5-amino-3-[4-[[(5-fluoro-2-methoxy-benzoyl)amino]methyl]phenyl]-1-[(3R)-tetrahydrofuran-3-yl]pyrazole-4-carboxamide], the IC50 in experiment [1] was less than 10 nM; in experiment [2] it was less than 10 nM; in experiment [3] it was 1000 to 10000 nM; in experiment [4] (Homo sapiens, OCI-Ly10, 72 h) it was 10 to 100 nM.
Turning to `COc1ccccc1C(=O)NCc1cc(F)c(-c2nn(C3CCCC3)c(N)c2C(N)=O)cc1F` [Example 156, 5-amino-1-cyclopentyl-3-[2,5-difluoro-4-[[(2-methoxybenzoyl)amino]methyl]phenyl]pyrazole-4-carboxamide], the IC50 is less than 10 nM in experiment [1]; less than 10 nM in experiment [2]; more than 10000 nM in experiment [3]; 10 to 100 nM in experiment [4] (Homo sapiens, OCI-Ly10, 72 h).
As for `COc1ccccc1C(=O)NCc1ccc(-c2nn(C3CCCOC3)c(N)c2C(N)=O)cc1F` (stereo not shown) [Example 117, 5-amino-3-[3-fluoro-4-[[(2-methoxybenzoyl)amino]methyl]phenyl]-1-tetrahydropyran-3-yl-pyrazole-4-carboxamide], the IC50 in experiment [1] was less than 10 nM; in experiment [2], less than 10 nM; in experiment [3], 1000 to 10000 nM; in experiment [4] (Homo sapiens, OCI-Ly10, 72 h) it was 10 to 100 nM.
As to `COc1ccc(F)cc1C(=O)NCc1ccc(-c2nn(C(C)C(F)(F)F)c(N)c2C(N)=O)c(F)c1F` (stereo not shown) [Example 165, 5-amino-3-[2,3-difluoro-4-[[(5-fluoro-2-methoxy-benzoyl)amino]methyl]phenyl]-1-(2,2,2-trifluoro-1-methyl-ethyl)pyrazole-4-carboxamide], the IC50 in experiment [1] is 10 to 100 nM; in experiment [2], less than 10 nM; in experiment [3] it was 1000 to 10000 nM; in experiment [4] (Homo sapiens, OCI-Ly10, 72 h) it was 10 to 100 nM.
As for `COc1ccccc1C(=O)NCc1ccc(-c2nn(C3CN(C)CC3(F)F)c(N)c2C(N)=O)cc1F` (stereo not shown) [Example 166, 5-amino-1-(4,4-difluoro-1-methyl-pyrrolidin-3-yl)-3-[3-fluoro-4-[[(2-methoxybenzoyl)amino]methyl]phenyl]pyrazole-4-carboxamide], the IC50 in experiment [1] is 10 to 100 nM; in experiment [2] it was less than 10 nM; in experiment [3], 1000 to 10000 nM; in experiment [4] (Homo sapiens, OCI-Ly10, 72 h), 10 to 100 nM.
On to `COc1ccccc1C(=O)NCc1ccc(-c2nn(C3CCOC(C)C3)c(N)c2C(N)=O)cc1` (mixture of isomers) [Example 85, 5-amino-3-[4-[[(2-methoxybenzoyl)amino]methyl]phenyl]-1-(2-methyltetrahydropyran-4-yl)pyrazole-4-carboxamide], for which the IC50 was less than 10 nM in experiment [1]; less than 10 nM in experiment [2]; 100 to 1000 nM in experiment [3]; 10 to 100 nM in experiment [4] (Homo sapiens, OCI-Ly10, 72 h).
For the compound `COc1ccc(F)cc1C(=O)NCc1ccc(-c2nn(CC(F)(F)F)c(N)c2C(N)=O)cc1` [Example 122, 5-amino-3-[4-[[(5-fluoro-2-methoxy-benzoyl)amino]methyl]phenyl]-1-(2,2,2-trifluoroethyl)pyrazole-4-carboxamide], the IC50 in experiment [1] is less than 10 nM; in experiment [2], less than 10 nM; in experiment [3] it was 1000 to 10000 nM; in experiment [4] (Homo sapiens, OCI-Ly10, 72 h), 10 to 100 nM.
In the case of `COc1ccccc1C(=O)NCc1ccc(-c2nn(C(C)C)c(N)c2C(N)=O)cc1` [Example 19, 5-amino-1-isopropyl-3-[4-[[(2-methoxybenzoyl)amino]methyl]phenyl]pyrazole-4-carboxamide], the IC50 is less than 10 nM in experiment [1]; less than 10 nM in experiment [2]; 100 to 1000 nM in experiment [3]; 10 to 100 nM in experiment [4] (Homo sapiens, OCI-Ly10, 72 h).
For `COc1ccccc1C(=O)NCc1ccc(-c2nn(C3CCOCC3)c(C(F)F)c2C(N)=O)cc1` [Example 108, 5-(difluoromethyl)-3-[4-[[(2-methoxybenzoyl)amino]methyl]phenyl]-1-tetrahydropyran-4-yl-pyrazole-4-carboxamide], the IC50 is 10 to 100 nM in experiment [1]; 10 to 100 nM in experiment [2]; more than 10000 nM in experiment [3]; 1000 to 10000 nM in experiment [4] (Homo sapiens, OCI-Ly10, 72 h).
In the case of `COc1ccc(F)cc1C(=O)NCc1cc(F)c(-c2nn(C3CCOCC3)c(N)c2C(N)=O)cc1F` [Example 146, 5-amino-3-[2,5-difluoro-4-[[(5-fluoro-2-methoxy-benzoyl)amino]methyl]phenyl]-1-tetrahydropyran-4-yl-pyrazole-4-carboxamide], the IC50 in experiment [1] was less than 10 nM; in experiment [2], less than 10 nM; in experiment [3], more than 10000 nM; in experiment [4] (Homo sapiens, OCI-Ly10, 72 h), 100 to 1000 nM.
With `COc1ccccc1C(=O)NCc1ccc(-c2nn(C3CCCCC3)c(N)c2C(N)=O)cc1` [Example 18, 5-amino-1-cyclohexyl-3-[4-[[(2-methoxybenzoyl)amino]methyl]phenyl]pyrazole-4-carboxamide], the IC50 in experiment [1] is less than 10 nM; in experiment [2], less than 10 nM; in experiment [3], 100 to 1000 nM; in experiment [4] (Homo sapiens, OCI-Ly10, 72 h), less than 10 nM; in experiment [4] it was 10 to 100 nM.
On to `COc1ccccc1C(=O)NCc1ccc(-c2nn(C(C)(C)C)c(N)c2C(N)=O)cc1` [Example 3, 5-amino-1-tert-butyl-3-[4-[[(2-methoxybenzoyl)amino]methyl]phenyl]pyrazole-4-carboxamide], for which the IC50 in experiment [1] is less than 10 nM; in experiment [2], less than 10 nM; in experiment [3] it was 100 to 1000 nM; in experiment [4] (Homo sapiens, OCI-Ly10, 72 h), 10 to 100 nM.
